Patent US9234222B2, “Microbial strains producing sphingoid bases or derivatives thereof” (EVONIK DEGUSSA GMBH, priority 2004, dated 2016)
Bridge positions count the residues as written; N and C are the ends. Square brackets hold non-standard residues; d marks the D form. Peptide text beside a SMILES is read from it. * marks the point of attachment. Asp(3S-OH) = N[C@H](C(=O)O)[C@H](O)C(=O)O; Thr(4-Cl) = N[C@H](C(=O)O)[C@H](O)CCl; X1 = CCCCCCCCC[C@@H](O)CC(=O)*; dDab = NCC[C@@H](N)C(=O)O; Dab = NCC[C@H](N)C(=O)O; Dhb = C/C=C(\N)C(=O)O

Test system: Pichia ciferrii strains
Assay: Minimal inhibitory concentration of SyringomycinE on YEPD agar plates
Type: cell-based
Conditions: 10 μg/ml in YEPD selective plates
Procedure: In order to isolate high sphinganine producing Pichia ciferrii strains the following procedure was followed. First, the natural sensitivity of Pichia ciferrii strains for the toxic compound SyringomycinE, produced by […] syringae (Gross D C, 1985, Regulation of syringomycin synthesis in Pseudomonas syringae pv. syringae and defined conditions for its production. J Appl Bacteriol. 58:167-174), was determined by adding different concentrations of SyringomycinE to agar plates. A stock solution of 3.5 mg SyringomycinE (obtained from J. Takemoto, Utah State University) was prepared by dissolving it in 1.0 ml 0.001 N HCl. The pH was kept below 7 for stability and stored at −20° C. The minimal inhibitory concentration (=MIC-value) for Pichia ciferrii strains was determined by using YEPD plates (per liter: Yeast Extract, 10 g; Pepton, 20 g; Glucose, 20 g; Agar, 20 g) containing various concentrations between 0.1 and 20 μg/ml syringomycinE. On each plate with the different concentrations of syringomycinE 100 μl of a freshly grown culture (OD600 nm=0.4) was plated and incubated at 30° C. for 5 days.
Depending on the strain no colonies appeared on plates with 2 to 10 μg/ml of SyringomycinE, meaning that the MIC value lies between 2 and 10 μg/ml. […]

C/C=C1\NC(=O)[C@H](Cc2ccccc2)NC(=O)[C@H](CCCN=C(N)N)NC(=O)[C@@H](CCN)NC(=O)[C@H](CCN)NC(=O)[C@@H](CO)NC(=O)[C@@H](NC(=O)C[C@H](O)CCCCCCCCC)COC(=O)[C@H]([C@H](O)CCl)NC(=O)[C@H]([C@H](O)C(=O)O)NC1=O [SyringomycinE] (X1-S[dS][Dab][dDab]RF[Dhb][Asp(3S-OH)][Thr(4-Cl)]; ester 1-C)
effect on standard P. ciferrii strains: lethal
